Data on one compound can be found in US9000027B2, “Chk1 suppresses a caspase-2 apoptotic response to DNA damage that bypasses p53, bcl-2 and caspase-3” (Dana-Farber Cancer Institute, Inc., priority 2008, dated 2015).

Data set [1] deals with Tg(rag2:EGFP-bcl-2) larvae. The data set can be described thus: T-cell radioresistance in Tg(rag2:EGFP-bcl-2) larvae. The format is in vivo, zebrafish. An excerpt:
To test this notion in vivo, we exploited a zebrafish transgenic line expressing a stable EGFP-bcl-2 fusion transgene under control of the rag2 promoter (Langenau et al., 2005). Such Tg(rag2: EGFP-bcl-2) larvae are characterized by highly radioresistant T- and B-cells at 9 dpf. […] Together with our human cell culture studies, our in vivo analysis of Gö6976 in zebrafish raises the remarkable possibility that tumors disrupting p53 or its attendant downstream pathway—in other words, most human cancers—will respond favorably to Chk1 inhibitors.
Immediately before IR, 18-hpf embryos were dechorionated and transferred to fresh egg water containing 1% DMSO, with or without the following inhibitors at indicated final concentrations: KU55933 (10 μM; Sigma) (Hickson et al., 2004); Chk2 Inhibitor II (10 μM; Calbiochem) (Arienti et al., 2005); Gö6976 (1 μM; Calbiochem) (Kohn et al., 2003). Unless stated otherwise, embryos were exposed to the inhibitors for 6 hr, transferred to fresh egg water, rinsed five times for 5 min, and labeled with AO. For experiments with Tg(rag2:EGFP-bcl-2) larvae, larvae were incubated in the inhibitor solution at 4 dpf, irradiated at 5 dpf, rinsed at 6 dpf, incubated in fresh inhibitor for an additional 72 hr, and mounted live at 9 dpf for fluorescence microscopic analysis of EGFP expression.

Data set [2] concerns caspase-2. The data set can be described thus: Western blot of caspase-2 cleavage in human cancer cells. The format is cell-based. On the procedure: (§1) Protein extract (5-60 μg) was added to 4× gel loading buffer and 10× denaturing solution (Invitrogen) in appropriate proportions, and samples were incubated at 70° C. for 10 min. Samples were run at 200V for 1 hr on a 4-12% Bis-tris gradient gel (Invitrogen). After electrophoresis, samples were transferred for 1.5 hr (350 mA) to a Nitrocellulose membrane (Millipore) using a submerged transfer apparatus (Bio-Rad). Membranes were then blocked with 5% milk in Tris-buffered saline with 0.1% tween (TBST) and probed overnight at 4° C. with the following antibodies: anti-zebrafish Chk1 (diluted 1:200), anti-zebrafish Chk2 (1:200), anti-P-Cdc2 (1:1000), anti-actin (1:2000), anti-human ATR (1:500) and Stressgen anti-human-caspase-3 (1:500) for zebrafish immunoblots; and anti-caspase-2 (1:200), Upstate anti-caspase-3 (1:500), anti-P-ATM (1:500), anti-ATM (1:500), Santa Cruz anti-human Chk1 (1:1000), Santa Cruz anti-human Chk2 (1:1000), anti-P-Chk1 (1:500), anti-P-Chk2 (1:500), anti-P-H2A.X (1:2000), anti-P-cdc25C (1:1000), anti-P-HSP27 (1:1000), anti-HSP27 (1:1000), anti-P-Cdc2 (1:1000), anti-p53 (1:1000) and anti-GAPDH (1:5000) for immunoblots of human tumor cell lysates. Detailed references for all primary antibodies can be found in the ‘Antibodies’ section elsewhere herein.
(Immunoblotting shows a protein as a band on a membrane.)

Data set [3] concerns the target MK-2 (Homo sapiens, UniProt P49137). The data set can be described thus: Western blot of MK-2 activity (Hsp-27 Ser82 phosphorylation) in irradiated HeLa cells. The arrangement: endogenous in cells; host or cells: HeLa. In kind it is cell-based. The method, then: as §1
Data set [4] has as its system HeLa cells. The data set can be described thus: Cell viability assay (CellTiter-Glo) after IR. The format is cell-based, human. Conditions: 10 Gy, 72 hpIR. On the procedure: For the cell viability assay, Tg(BCL2)^− and Tg(BCL2)^+ H218 cells were seeded into black 96-well plates (BD Bioscience) at a density of 1000 cells per well on day 1. 24-well sets were treated with DMSO or Gö6976 (1 μM), and plates were exposed to 0 or 10 Gy IR on day 2. After 72 hr, cellular viability was measured with the CellTiter-Glo Luminescent Cell Viability Assay kit (Promega) according to the manufacturer's instructions. Cellular viability for each well was calculated as a percentage of the mean viability of DMSO-treated, non-irradiated cells. The mean cellular viability and SEM were calculated and plotted with GraphPad Prism version 3 (GraphPad Software, San Diego Calif., USA). Each viability experiment was performed twice.

The structures appear in SMILES notation. “Also recorded” adds a separate entry of the source.

Sequence of MK-2 (P49137 whole entry): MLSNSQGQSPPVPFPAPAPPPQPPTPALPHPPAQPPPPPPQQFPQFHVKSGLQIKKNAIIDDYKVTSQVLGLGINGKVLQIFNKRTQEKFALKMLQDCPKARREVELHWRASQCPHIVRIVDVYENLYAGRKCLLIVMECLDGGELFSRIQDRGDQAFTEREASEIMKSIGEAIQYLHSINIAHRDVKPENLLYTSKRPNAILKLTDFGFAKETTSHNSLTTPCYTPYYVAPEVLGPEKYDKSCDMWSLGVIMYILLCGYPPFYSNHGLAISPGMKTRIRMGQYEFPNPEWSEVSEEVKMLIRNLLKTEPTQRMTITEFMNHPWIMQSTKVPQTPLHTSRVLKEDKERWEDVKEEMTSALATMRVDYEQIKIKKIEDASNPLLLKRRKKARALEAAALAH

With `Cn1c2ccccc2c2c3c(c4c5ccccc5n(CCC#N)c4c21)CNC3=O` [Gö6976], the “larvae with T-cell radioresistance suppressed” value in data set [1] (15 Gy IR at 5 dpf, Gö6976 for 5 days from 4 dpf, scored 9 dpf, n=26, DMSO: none (n=28)) was 58%. Moreover, in data set [1] (larvae, 5 days exposure), the “adverse effects of systemic treatment” value is reported as “without any apparent adverse effects”. Besides, the caspase-2 activation entry in data set [2] (HeLa, 2 Gy, Gö6976 500 nM for 24 hbIR) is recorded as “synergistic activation of caspase-2 was observed”; in data set [2] (HeLa, 3.2 Gy, Gö6976 1 μM applied 6 hbIR) it was “as efficiently as the standard 10 Gy protocol”. Further, the caspase-2 cleavage entry in data set [2] (HeLa, 2 or 3.2 Gy, Gö6976 1 μM applied 1 hbIR) was “no detectable cleavage”; in data set [2] (HeLa, 10 Gy, 24 hpIR, Gö6976 1 μM applied 1 hbIR), “readily apparent; also recorded: strong caspase-2 cleavage”; in data set [2] (TP53+/+ HCT116 cells, IR+Gö6976), “inability to cleave caspase-2”. The “caspase-2 cleavage versus single- or no-treatment controls” value in data set [2] (TP53 null or mutant lines (TP53-/- HCT116, SAOS2, MDA-MB-435, LN-428), 10 Gy IR+Gö6976) is on record as “increases in caspase-2 cleavage”. Also, the MK-2 activity entry in data set [3] (Gö6976 1 μM) is on record as “an increase in MK-2 activity”. Also, the “HSP-27 phosphorylation at serine 82 (MK-2 site)” value in data set [3] (Gö6976, increasing concentrations, 10 Gy, 24 hpIR) is listed as “did not block HSP-27 phosphorylation at serine 82”. Moreover, in data set [4] (Gö6976 1 μM), the “radiosensitizing effect (cell killing)” value is reported as around 50%. In addition, the “radiosensitization of HeLa cells” value in data set [4] (regardless of BCL2 transgene) was around 2 fold.
